Results published in patent publication US20220409742A1, “NUCLEIC ACID NANOPARTICLES, PHARMACEUTICAL COMPOSITION COMPRISING SAME, DRUG COMPRISING DOXORUBICIN AND PREPARATION METHOD THEREFOR” (BAI YAO ZHI DA (BEIJING) NANOBIO TECHNOLOGY CO., LTD., priority 2018, published 2022).

B1: D-2: conventional-sequence DNA nanoparticle, SEQ ID NO:102-104, EGFRapt target head, thio modification (nucleic acid)
chain 1: CGCGCGCCCAGCAGCGTTCGCGGGCGGCGGCCTTAGTAACGTGCTTTGATGTCGATTCGACAGGAGGC
chain 2: CGCCGCCCGCGTTCGCCGCCAGCCGCC
chain 3: GGCGGCAGGCGGCCATAGCGCTGGGCGCGCG
modifications: DNA, backbone and methylation of C not given here; DNA nanoparticle with EGFR aptamer head, phosphorothioate modification
B2: D-6: conventional-sequence DNA nanoparticle, SEQ ID NO:114-116, without target head, thio modification (nucleic acid)
chain 1: CGCGCGCCCAGCAGCGTTCGGGGCGCCGC
chain 2: GCGGCGCCCCGTTCGGCCGGCAGGCGGC
chain 3: GCCGCCAGCCGGCCCATAGCGCTGGGCGCGCG
modifications: DNA, backbone and methylation of C not given here; three-strand DNA nanoparticle, phosphorothioate modification

Test: Doxorubicin loading rate, chemical loading (paraformaldehyde covalent linkage)
Assay type: physicochemical
Details: doxorubicin molecules per nucleic acid nanoparticle carrier
Description: (1) Accurately weighing the doxorubicin (5.0 mg, 8.6 μmol, 40 eq.) and dissolving in the DEPC treated water (1.8 mL) and the PBS buffer solution (2.1 mL), adding 4% paraformaldehyde aqueous solution (0.4 mL) under cooling of an ice-water bath and uniformly mixing, enabling the mixed solution to be totally uniformly mixed with the RNA nanoparticles (215 nmol), and reacting for 72 hours at 4 DEG C. under a dark condition.
(2) Taking 10 μL of reaction solution and diluting for 10 times, using 50 μM of the doxorubicin aqueous solution and 310 ng/μL of the RNA nanoparticles as controls, and performing HPLC analysis according to equal volume injection. According to a peak area ratio of each component, it may be adjusted that reaction conversion is basically completed.
(3) Extracting the reaction solution by the chloroform (10 mL×3), and then adding 10 times of the anhydrous ethanol in volume, after uniformly mixing, keeping at 4 DEG C. in the dark and enabling a product to be adequately precipitated (4 hours). Centrifuging, transferring supernatant, and washing the solid product again by the ethanol, evaporating a solvent under reduced pressure and lower temperature, to obtain a loading product which is a dark red solid.
(5) Loading rate calculation:
1. preparing a known concentration of doxorubicin-PBS standard solution: 2 μM, 4 μM, 6 μM, 8 μM, and 10 μM, 100 μL each;
2. enabling the doxorubicin-loaded product to be dissolved in 100 μL of the PBS;
3. putting the standard solution and the doxorubicin-loaded product into a PCR plate, heating at 85 DEG C. for 5 min, and then cooling to the room temperature;
4. measuring an absorbance of the doxorubicin at 492 nm by using a microplate reader, drawing a standard curve (as shown in FIG. 11), and calculating the molar concentration of the doxorubicin in the loaded product;
5. measuring an absorbance of RNA at 260 nm by using a spectrophotometer, to obtain the mass concentration of the doxorubicin-loaded product contained in each sample; and
6. according to the doxorubicin molar concentration and the mass concentration of the doxorubicin-loaded product obtained by measuring, calculating a loading rate.
According to the chemical loading method (unless otherwise specified, the method is the same as that of Embodiment 5) of Embodiment 5, the above DNA nanoparticles in Embodiment 1, the RNA nanoparticles formed by the self-assembly of the R-1, R-2, R-3, R-4, R-5, R-6 and R-7 in Embodiment 2, and the DNA nanoparticles formed by the self-assembly of the D-2, D-6 and D-7 in Embodiment 4 are respectively used as doxorubicin loading carriers, doxorubicin loading rates measured are respectively as follows:
According to the chemical loading method (unless otherwise specified, the method is the same as that of Embodiment 5) of Embodiment 5, the RNA nanoparticles formed by the self-assembly of the previous R-15, R-16, R-17, R-18, R-19, R-20 and R-21 in Embodiment 11, and the DNA nanoparticles formed by the self-assembly of the D-8, D-9, D-10, D-11, D-12, D-13 and D-14 in Embodiment 12 are respectively used as doxorubicin loading carriers, doxorubicin loading rates measured are respectively as follows: […]

Point of comparison: “R-5: short-sequence RNA nanoparticle, strands SEQ ID NO:67-69, c/u 2′F modification (chain 1 GCAGCGUUCG; chain 2 CGUUCGGCGY; chain 3 CGCCCAUAGCGC; 2'-F C/U, chemistry not fully specified)”, doxorubicin loading rate 12.5. Against it:
- R-1: short-sequence RNA nanoparticle, strands SEQ ID NO:55-57, c/u 2′F modification (chain 1 GGAGCGUUGG; chain 2 CCUUCGCCGY; chain 3 CGGCCAUAGCCC; 2'-F C/U, chemistry not fully specified) — lower, 3.5
- R-2: short-sequence RNA nanoparticle, strands SEQ ID NO:58-60, c/u 2′F modification (chain 1 GCAGCGUUCG; chain 2 CGUUCGCCGY; chain 3 CGGCCAUAGCGC; 2'-F C/U, chemistry not fully specified) — lower, 2.4
- R-3: short-sequence RNA nanoparticle, strands SEQ ID NO:61-63, c/u 2′F modification (chain 1 CGAGCGUUGC; chain 2 GCUUCGCCGY; chain 3 CGGCCAUAGCCG; 2'-F C/U, chemistry not fully specified) — lower, 4.8
- R-4: short-sequence RNA nanoparticle, strands SEQ ID NO:64-66, c/u 2′F modification (chain 1 GGAGCGUUGG; chain 2 CCUUCGGGGY; chain 3 CCCCCAUAGCCC; 2'-F C/U, chemistry not fully specified) — lower, 3.5
- R-6: short-sequence RNA nanoparticle, strands SEQ ID NO:70-72, c/u 2′F modification (chain 1 GCAGCGUUCG; chain 2 CGUUCGGCCY; chain 3 GGCCCAUAGCGC; 2'-F C/U, chemistry not fully specified) — lower, 2.8
- B1 — higher, 14
- B2 — lower, 11
